Peptide text beside a SMILES is read from it.
Molecular target: Substance-P receptor (Rana catesbeiana)
Test: SP-induced [Ca2+] mobilization in CHO cells expressing bullfrog Tachykinin receptor 1

Compound	EC50 [nM]
CC[C@H](C)[C@H](NC(=O)[C@H](Cc1ccccc1)NC(=O)[C@H](CO)NC(=O)[C@H](C)NC(=O)[C@@H]1CCCN1C(=O)[C@H](CC(N)=O)NC(=O)[C@@H](N)Cc1cnc[nH]1)C(=O)NCC(=O)N[C@@H](CC(C)C)C(=O)N[C@@H](CCSC)C(N)=O (H-HNPASFIGLM-NH2)	14
CSCC[C@H](NC(=O)[C@H](CC(C)C)NC(=O)CNC(=O)[C@H](Cc1ccc(O)cc1)NC(=O)[C@H](Cc1ccccc1)NC(=O)[C@H](CO)NC(=O)[C@H](CC(=O)O)NC(=O)[C@H](CO)NC(=O)[C@H](CCCCN)NC(=O)[C@@H](N)Cc1ccc(O)cc1)C(N)=O (H-YKSDSFYGLM-NH2)	14
CSCC[C@H](NC(=O)[C@H](CC(C)C)NC(=O)CNC(=O)[C@H](Cc1ccc(O)cc1)NC(=O)[C@H](Cc1ccccc1)NC(=O)[C@H](CCCNC(=N)N)NC(=O)[C@H](CC(=O)O)NC(=O)[C@@H]1CCCN1C(=O)[C@H](CO)NC(=O)[C@@H]1CCCN1C(=O)[C@@H](N)CCCCN)C(N)=O (H-KPSPDRFYGLM-NH2)	0.6
